From ChEMBL document CHEMBL1201862, “PubChem BioAssay data set” (2004)
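Following 48 hours of exposure in 96-well plates, responses at five concentrations were used to interpolate endpoints linearly. Abbreviation: GI50, concentration required for 50% inhibition of growth.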 Active and inactive are the calls of the source. No stated cut-off is given here; in the data, active = GI50 up to about 1.1 µM and inactive = higher.

Columns and labels:
Assay in all cases: NCI anticancer screen, dose series, 48 h
HOP-92 = test system: HOP-92
UO-31 = test system: UO-31
Malme-3M = test system: Malme-3M
K562 = test system: K562
SF-539 = test system: SF-539
UACC-62 = test system: UACC-62
KM12 = test system: KM12
SK-MEL-28 = test system: SK-MEL-28
SW-620 = test system: SW-620
HCT-15 = test system: HCT-15
IGROV-1 = test system: IGROV-1
HL-60 = test system: HL-60
786-0 = test system: 786-0
SF-268 = test system: SF-268
SR = test system: SR
EKVX = test system: EKVX
CCRF-CEM = test system: CCRF-CEM

Row | SMILES | GI50 (HOP-92) | GI50 (UO-31) | GI50 (Malme-3M) | GI50 (K562) | GI50 (SF-539) | GI50 (UACC-62) | GI50 (KM12) | GI50 (SK-MEL-28) | GI50 (SW-620) | GI50 (HCT-15) [µM] | GI50 (IGROV-1) | GI50 (HL-60) | GI50 (786-0) | GI50 (SF-268) | GI50 (SR) | GI50 (EKVX) | GI50 (CCRF-CEM)
1 | Cc1csc(=S)n1OC(=O)NC1CCCCC1 | 7.89 µM (inactive) | > 100 µM (inactive) | > 100 µM (inactive) | 31 µM (inactive) | > 100 µM (inactive) | > 38.1 µM (inactive) | > 80.9 µM (inactive) | > 34.6 µM (inactive) | > 56.8 µM (inactive) | > 100 | > 100 µM (inactive) | 17.9 µM (inactive) | 19 µM (inactive) | > 87.1 µM (inactive) | 12.1 µM (inactive) | > 100 µM (inactive) | 9.57 µM (inactive)
2 | C/N=c1\ss/c(=N\C(=S)N(C)C)n1C | > 100 µM (inactive) | > 100 µM (inactive) | > 100 µM (inactive) | > 100 µM (inactive) | > 100 µM (inactive) | > 100 µM (inactive) | > 100 µM (inactive) | > 100 µM (inactive) | > 100 µM (inactive) | > 100 | > 100 µM (inactive) | > 100 µM (inactive) | > 100 µM (inactive) | > 100 µM (inactive) | > 100 µM (inactive) | > 100 µM (inactive) | > 100 µM (inactive)
3 | CCCCCCCCCC(=O)CC(=O)c1ccc(O)cc1O | 27.7 µM (inactive) | 19.7 µM (inactive) | 52.6 µM (inactive) | 29.1 µM (inactive) | 26.5 µM (inactive) | 21.2 µM (inactive) | 21.4 µM (inactive) | 39.8 µM (inactive) | 36.5 µM (inactive) | 30.2 | 31.5 µM (inactive) | 19 µM (inactive) | 33.5 µM (inactive) | 40.8 µM (inactive) | 15.8 µM (inactive) | 25.9 µM (inactive) | 33.9 µM (inactive)
4 | Cc1ccc(NC(=S)SCCC(=O)O)cc1 |  | > 100 µM (inactive) |  | > 100 µM (inactive) | > 100 µM (inactive) |  | > 100 µM (inactive) | > 100 µM (inactive) | > 100 µM (inactive) | > 100 |  | > 100 µM (inactive) | > 100 µM (inactive) | 71.6 µM (inactive) | > 100 µM (inactive) | > 100 µM (inactive) | > 100 µM (inactive)
5 | CCNC1C2(CCCCC2)NC(=O)C12CCCCC2 (configuration not stated) |  | > 100 µM (inactive) | > 100 µM (inactive) | > 100 µM (inactive) | > 100 µM (inactive) | > 100 µM (inactive) | > 100 µM (inactive) | > 100 µM (inactive) | > 100 µM (inactive) | > 100 | > 100 µM (inactive) | > 100 µM (inactive) | > 100 µM (inactive) |  |  | > 100 µM (inactive) | > 100 µM (inactive)
6 | CCC12C=CCN3CCC4(C(=C(C(=O)OC)C1)Nc1ccccc14)[C@H]32 (some centres not stated) | 23.4 µM (inactive) | 65.2 µM (inactive) | 42.4 µM (inactive) | 18.8 µM (inactive) | 20.5 µM (inactive) | 21.3 µM (inactive) | 25.8 µM (inactive) | 41.7 µM (inactive) | 26 µM (inactive) | 40.3 | 39.1 µM (inactive) | 16 µM (inactive) | 23.4 µM (inactive) | 19.5 µM (inactive) | 0.0364 µM (active) | 51.1 µM (inactive) | 22.2 µM (inactive)
7 | O=C(NCCNCCO)N/N=C/c1ccccc1 |  |  | > 100 µM (inactive) | > 100 µM (inactive) | > 100 µM (inactive) | > 100 µM (inactive) | > 100 µM (inactive) | > 100 µM (inactive) | > 100 µM (inactive) | > 100 | > 100 µM (inactive) | 79.3 µM (inactive) | > 100 µM (inactive) | > 100 µM (inactive) |  |  | > 100 µM (inactive)
8 | CO[C@@]12CC(=O)/C(=C(O)\C=C\c3ccccc3)C(=O)[C@]1(OC)Cc1ccccc1O2 | 48.6 µM (inactive) | 40 µM (inactive) | 91 µM (inactive) | 33.7 µM (inactive) | 24 µM (inactive) | 21.9 µM (inactive) | 19.8 µM (inactive) | 22.4 µM (inactive) | 31.3 µM (inactive) | 20 | 54 µM (inactive) |  | 24.7 µM (inactive) | 27.7 µM (inactive) |  | 38.5 µM (inactive) | 22.4 µM (inactive)
9 | Nc1nc(N)c(-c2ccccc2)c(CCC(=O)Nc2ccc(Cl)cc2)n1 | > 100 µM (inactive) | > 100 µM (inactive) | > 100 µM (inactive) | 76.2 µM (inactive) | > 100 µM (inactive) | > 100 µM (inactive) | > 100 µM (inactive) | > 100 µM (inactive) | > 100 µM (inactive) | > 100 | > 100 µM (inactive) | > 100 µM (inactive) | > 100 µM (inactive) | > 100 µM (inactive) | > 100 µM (inactive) | > 100 µM (inactive) | > 100 µM (inactive)
10 | COC1=CCC=C(C[C@@H]2NCCc3cc(OC)c(OC)cc32)C1 | 41.5 µM (inactive) | > 100 µM (inactive) | > 100 µM (inactive) | > 100 µM (inactive) | > 100 µM (inactive) | > 100 µM (inactive) | > 100 µM (inactive) | > 100 µM (inactive) | > 100 µM (inactive) | > 100 | > 100 µM (inactive) | > 100 µM (inactive) | > 100 µM (inactive) | > 100 µM (inactive) |  | > 100 µM (inactive) | > 100 µM (inactive)
11 | Cc1cccc(NC(=O)C(=O)C(C(=O)c2ccc3ccccc3c2)C2OC(=O)c3ccccc32)c1C (configuration not stated) | 11.8 µM (inactive) | 14.5 µM (inactive) | 6.05 µM (inactive) | 15.7 µM (inactive) | 6.53 µM (inactive) | 10.4 µM (inactive) | 20.8 µM (inactive) | 5.2 µM (inactive) | 7.98 µM (inactive) | 15.5 | 17.5 µM (inactive) | 11.4 µM (inactive) | 6.15 µM (inactive) | 6.03 µM (inactive) |  | 26.1 µM (inactive) | 8.02 µM (inactive)
12 | O=c1cccccc1NCCNc1cccccc1=O | > 100 µM (inactive) | > 100 µM (inactive) | 13.9 µM (inactive) | > 100 µM (inactive) | > 100 µM (inactive) | > 100 µM (inactive) | > 100 µM (inactive) |  | > 100 µM (inactive) | > 100 | > 100 µM (inactive) | > 100 µM (inactive) | > 100 µM (inactive) | > 100 µM (inactive) | > 100 µM (inactive) | > 100 µM (inactive) | > 100 µM (inactive)
13 | CCOC(=O)NC(=O)c1cn(C2OC(COC(=O)CCCCCCCCC(=O)OCC3OC(n4cc(C(=O)NC(=O)OCC)c(=O)[nH]c4=O)C4OC(C)(C)OC34)C3OC(C)(C)OC32)c(=O)[nH]c1=O (configuration not stated) | 67.1 µM (inactive) | > 100 µM (inactive) | > 100 µM (inactive) | 40.8 µM (inactive) | > 100 µM (inactive) | > 100 µM (inactive) | 73.8 µM (inactive) | 84.1 µM (inactive) | 35.8 µM (inactive) | > 100 | > 100 µM (inactive) | 63.5 µM (inactive) | > 100 µM (inactive) | 70.5 µM (inactive) | 78.5 µM (inactive) | > 100 µM (inactive) | 30.1 µM (inactive)
14 | OCc1ccc(C2CC(c3ccco3)=NN2c2ccccc2)o1 (configuration not stated) |  | > 100 µM (inactive) | > 100 µM (inactive) | 86.3 µM (inactive) | > 100 µM (inactive) | > 100 µM (inactive) | > 100 µM (inactive) | > 100 µM (inactive) | > 100 µM (inactive) | > 100 | > 100 µM (inactive) | > 100 µM (inactive) | > 100 µM (inactive) | > 100 µM (inactive) | > 100 µM (inactive) | > 100 µM (inactive) | > 100 µM (inactive)
15 | CCOC(=O)NC(=O)c1cn(CCOC(=O)CCCCCCCCC(=O)OCCn2cc(C(=O)NC(=O)OCC)c(=O)[nH]c2=O)c(=O)[nH]c1=O | > 100 µM (inactive) | > 100 µM (inactive) | > 100 µM (inactive) | > 100 µM (inactive) | > 100 µM (inactive) | > 100 µM (inactive) | > 100 µM (inactive) | > 100 µM (inactive) | > 100 µM (inactive) | > 100 | > 100 µM (inactive) | > 100 µM (inactive) | > 100 µM (inactive) | > 100 µM (inactive) | > 100 µM (inactive) | > 100 µM (inactive) | > 100 µM (inactive)
16 | COC(=O)C1=C(C)N(NC(=O)c2cccc(Cl)c2)C(C)(O)C12CCOC2=O (configuration not stated) |  | > 100 µM (inactive) | > 100 µM (inactive) | > 100 µM (inactive) | > 100 µM (inactive) | > 100 µM (inactive) | > 100 µM (inactive) | > 100 µM (inactive) | > 100 µM (inactive) | > 100 | > 100 µM (inactive) |  | > 100 µM (inactive) | > 100 µM (inactive) | > 100 µM (inactive) | 58.7 µM (inactive) | 
17 | Cc1c(O)c(O)cc[n+]1C1OC(CO)C(O)C1O (configuration not stated) | > 100 µM (inactive) | > 100 µM (inactive) | > 100 µM (inactive) | > 100 µM (inactive) |  | > 100 µM (inactive) | > 100 µM (inactive) | > 100 µM (inactive) | > 100 µM (inactive) | > 100 | > 100 µM (inactive) |  | > 100 µM (inactive) | > 100 µM (inactive) |  | > 100 µM (inactive) | > 100 µM (inactive)
18 | Cc1cccc(Cl)c1NC(=O)c1cccc([N+](=O)[O-])c1O | 23 µM (inactive) | 19.8 µM (inactive) | 27 µM (inactive) | 36.7 µM (inactive) | 26.8 µM (inactive) | 25.4 µM (inactive) | 21.3 µM (inactive) | 41.5 µM (inactive) | 59 µM (inactive) | 35.6 | 34.5 µM (inactive) | > 10 µM (inactive) | 56 µM (inactive) | 31.8 µM (inactive) |  | 39.6 µM (inactive) | 73.5 µM (inactive)
